Results on twelve molecules are retold here after patent publication US5958770A, “Glycoalkaloids” (priority 1990, dated 1999).

Where two headings read alike, the source gives them in different places.

One data set has as its system unstimulated lymphocytes. Briefly: DMG cytotoxicity with carbohydrates, unstimulated lymphocytes. The format is cell-based, human. The procedure:
(§1) A mixture of solasodine glycosides (BEC), of which the active compound is solamargine and from which the aglycone solasodine is derived was prepared for use in cytotoxicity assays as determined by the uptake of tritiated thymidine. Inhibition studies were carried out with lactose, lactosyl-albumin, galactose or rhamnose (Sigma Chemical Co., USA). All experimental replicates were related to their own controls. Total volume of replicates was 250 μl (carbohydrates added in 50 μl tissue culture media+10% fetal calf serum), and the cell concentrations were 8×10^4 /ml.

For data set [1], the system named is Con A stimulated lymphocytes. The experiment in a line: DMG cytotoxicity with carbohydrates, Con A stimulated lymphocytes. The data set is classed as cell-based, human. The procedure:
as §1

The subject of another data set is Sarcoma 180. The experiment in a line: Survival of mice with Sarcoma 180, with and without rhamnose. The data set is classed as in vivo. The procedure: Herston White mice with a body weight of approximately 30 g and aged 8-10 weeks served as recipients. Twelve mice were randomly chosen for each experimental group.
Sarcoma 180 tumour cells (5×10^5) were inoculated intraperitoneally into mice. This caused a mortality of 100% with a median survival time of 20 days in the control groups. A standard mixture of glycoalkaloids (BEC) was dissolved in dimethylsulfoxide at a concentration of 0.5 g BEC/100 ml dimethylsulfoxide. Similar solutions were made up but also contained 0.3125, 0.625 and 0.9375 g of rhamnose. These solutions were administered intraperitoneally in concentrations of 8 mg/kg animal weight for BEC (FIG. 9) without (-.tangle-solidup.-), and with 5 mg (-.quadrature.-), 10 mg (-.cndot.-) and 15 mg (-Δ-) rhamnose/kg animal weight. The first dose was given 0.5 hours after administration of the Sarcoma 180 tumour cells. The remaining three doses were given at daily intervals. Dimethylsulfoxide and rhamnose had no effect on Sarcoma 180 activity in the absence of BEC (-.smallcircle.-).

Data set [2] concerns human cells, ovarian cancer cells, melanoma cells, cells infected with viruses, normal fibroblasts, normal bone marrow cells, leukemic cells and normal …. Briefly: Inhibition of the action of the mixture of solasodine glycosides by free sugars and sugars bound to bovine serum albumin. The data set is classed as cell-based. The settings on record: free sugar and bound to bovine serum albumin.

For data set [3], the system named is ovarian cancer cells. The experiment in a line: Solamargine cytotoxicity in presence and absence of carbohydrates, ovarian cancer cells. The data set is classed as cell-based, human. The settings on record: ovarian cancer cells. The procedure: as §1
Data set [4] relates to HeLa cells. The experiment in a line: Solamargine cytotoxicity in presence and absence of carbohydrates, HeLa cells. The data set is classed as cell-based, human. The settings on record: HeLa cells. The procedure:
as §1

The test system of another data set is lymphoblastoid cells. The experiment in a line: Solamargine cytotoxicity in presence and absence of carbohydrates, lymphoblastoid cells. The data set is classed as cell-based. The note with it: lymphoblastoid cells. The procedure: as §1
The subject of the next data set is fibroblasts. The experiment in a line: Solamargine cytotoxicity in presence and absence of carbohydrates, fibroblasts. The data set is classed as cell-based, human. The note with it: fibroblasts. The procedure:
as §1

Data set [5] has as its system ovarian cancer cells. The experiment in a line: Inhibition of tritiated thymidine uptake, ovarian cancer cells. The settings on record: Homo sapiens. The procedure:
(§2) The inhibition of cell replication by steroid alkaloids is determined by the inhibition of the incorporation of ^3 H thymidine into DNA. Using this technique, it should be possible to monitor any preferential inhibition of uptake of ^3 H thymidine by cancer cells.
(§3) Cells were maintained as monolayers in RPM1-1640 tissue culture media (Grant Island Biological Co) buffered with N-2-hydroxy-ethylpiperazine-N-2-ethanesulphonic acid pH 7.5 and supplemented with 10% heat inactivated fetal calf serum (FCS): (i) a human ovarian cancer cell line (C180-135), (ii) HeLa cells, (iii) human fibroblasts, and (iv) as a cell suspension of lymphoblastoid cells (EBV transformed lymphocytes). Monolayers were trypsinized to form a cell suspension. […] Cell concentration was adjusted to 2×10^5 cells/ml, and 2×10^4 cells were added in replicates of 10 to the wells (1×10^5 /ml well) of HA microtitre plates (Millipore Corp., USA). The cells were preincubated at 37.5° C. for 7 hours prior to the addition of 50 μl of the cytotoxic drug followed by the addition of 50 μl 5 uCi/ml of ^3 H thymidine, in the same tissue culture media 21 hours later. Incubation was continued for a total of 24 hours, which includes the pre-incubation time.
(§4) Appropriate DMSO cytotoxicity studies were also conducted. Solasodine glycosides were supplied as a mixture (BEC), and as separate components, solamargine, solasonine, a mixture of di- and mono-glycosides and the aglycone solasodine. All cytotoxic drugs were further diluted with HIFCS/TCM before testing. 5×10^4 ovarian cancer cells (200 μl/chamber of a chamber of microscope slide (Lab Tek Miles Scientific) were used. Controls received 50 μl HIFCS/TCM and experimental chambers 50 μl of solasodine glycosides (BEC) 1.5-3.8 μM/L after 7 hrs preincubation, and incubated for a further 3 hrs. Similarly, the cells were treated with the aglycone solasodine 19.4-96.8 μM/L. The cells were fixed and examined by the Papanicolaou method.

The test system of data set [6] is HeLa cells. The experiment in a line: cells. The procedure: as §2, §3, §4
Another data set concerns human fibroblasts. Briefly: cells. The procedure: as §2, §3, §4
The test system of data set [7] is lymphoblastoid cells (EBV transformed lymphocytes). The experiment in a line: cells. The procedure:
as §2, §3, §4

The subject of data set [8] is ovarian cancer cells, HeLa cells, lymphoblastoid cells, fibroblasts. The experiment in a line: Cytotoxicity / inhibition of tritiated thymidine uptake, cell types taken together. The note with it: for inhibition of tritiated thymidine uptake / cytotoxicity (words): 11.3 μM/L, various cell types. The procedure:
as §2, §3, §4

The subject of data set [9] is unstimulated and stimulated lymphocytes. The note with it: unstimulated and stimulated lymphocytes.
Description: (§5) This was cultured for 48 hours and pulsed with tritiated thymidine for a further 24 hours. In the inhibition studies, the cell concentration was 8×10^5 /ml.
(§6) All cells were harvested by vacuum filtration by washing in 250 μl of each of phosphate buffered saline, 5% trichloroacetic acid, 1.0M NaCl and 95% ethanol and subjected to β-scintillatian counting. Similarly, peripheral human blood lymphocytes were isolated and cultured 2×10^5 lymphocytes in CO2 1640TCM 10% HIFCS. Lymphocytes were stimulated with 20 μg/ml PHA, Con A or PWM, and cultured for 48 hrs followed by a 24 hr pulse. […] Cell concentrations were 8×10^4 /well total volume 250 μl. The dpm of the experimental replicates were expressed as a percentage of the mean value of the controls, and the mean value of the experimental replicates calculated.
Data set [10] is described as follows: in vitro. The note with it: human, unstimulated lymphocytes.
Description: as §5, §6
Data set [11] can be described thus: in vitro. The note with it: human, pha stimulated lymphocytes.
Description: as §5, §6
A short description of data set [12]: in vitro. The note with it: human, con a stimulated lymphocytes.
Description: as §5, §6
A short description of data set [13]: in vitro. The settings on record: human, pwm stimulated lymphocytes.
Description: as §5, §6

With `O=C[C@H](O)[C@@H](O)[C@H](O)[C@H](O)CO` [glucose], the “inhibition of the action of DMG” value in the data set on unstimulated lymphocytes is “do not inhibit DMG”; in data set [1], “inhibit the action of DMG”. Besides, in the data set with Sarcoma 180, the “effect on S180 activity in the absence of BEC” value was “no effects”. The “inhibitory effect on the action of the mixture of solasodine glycosides” value (from here on “inhibitory effect on the action”) in [2] is recorded as “inhibitory effects”.

Turning to `CC(=O)N[C@@H]1[C@@H](O)[C@H](O)[C@@H](CO)O[C@@H]1O` [NAc glucose], the “inhibitory effect on the action” value in [2] is recorded as “inhibitory effects”.

As for `OC[C@H]1O[C@@H](O[C@H]2[C@H](O)[C@@H](O)C(O)O[C@@H]2CO)[C@H](O)[C@@H](O)[C@H]1O` (some centres unmarked) [lactose, reference compound], the “inhibition of solamargine cytotoxicity” value in the data set on ovarian cancer cells [3] was “Partial inhibition”; in the data set with HeLa cells [4], “not inhibited”; with lymphoblastoid cells, “partial inhibition”; in the data set on fibroblasts, “completely inhibited”. Further, in data set [2], the “inhibitory effect on the action” value was “inhibitory effects”.

Take `CC(=O)N[C@@H]1C(O)O[C@H](CO)[C@@H](O)[C@@H]1O` (some centres unmarked) [NAc mannosamine]: the “inhibitory effect on the action” value in data set [2] is “inhibitory effects”.

For the molecule `CC(=O)NC1C(O)OC(CO)C(O)C1O` (centres unmarked) [NAc mannose], in data set [2], the “inhibitory effect on the action” value is given as “inhibitory effects”.

Regarding `CC(=O)N[C@H]1C(O)O[C@H](CO)[C@@H](O)[C@@H]1O` (some centres unmarked) [NAc glucosamine], the “inhibitory effect on the action” value in data set [2] is reported as “inhibitory effects”.

Regarding galactose [reference compound], the “inhibition of solamargine cytotoxicity” value with ovarian cancer cells [3] is reported as “partial inhibition”; with HeLa cells [4] it was “not inhibited”; with lymphoblastoid cells, “partial inhibition”; in the data set with fibroblasts, “completely inhibited”. In [2], the “inhibitory effect on the action” value is on record as “inhibitory effects”.

As to `O=C[C@@H](O)[C@@H](O)[C@H](O)[C@H](O)CO` [mannose], in data set [2], the “inhibitory effect on the action” value is “inhibitory effects”.

Regarding rhamnose, in the data set on fibroblasts, the “inhibition of solamargine cytotoxicity” value is given as “inhibition by rhamnose is also demonstrable”. Also, the “inhibition of the action of DMG” value with unstimulated lymphocytes is reported as “do not inhibit DMG”; in data set [1], “inhibit the action of DMG”. The “effect on S180 activity in the absence of BEC” value with Sarcoma 180 is recorded as “no effects”. Moreover, the “inhibition of the efficacy of BEC” value in the data set with Sarcoma 180 (mice with S180) is given as “inhibits the efficacy of BEC”.

Turning to `C[C@@H]1CC[C@@]2(NC1)O[C@H]1C[C@H]3[C@@H]4CC=C5C[C@@H](O[C@@H]6O[C@H](CO)[C@H](O)[C@H](O[C@@H]7O[C@H](CO)[C@@H](O)[C@H](O)[C@H]7O)[C@H]6O[C@@H]6O[C@@H](C)[C@H](O)[C@@H](O)[C@H]6O)CC[C@]5(C)[C@H]4CC[C@]3(C)[C@H]1[C@@H]2C` [Solasonine, solasonine], the viability at 11.3 µM in the data set with ovarian cancer cells [5] (read-out: Percentage Cell Survival) was 93 ± 8%; in the data set on HeLa cells [6] (Homo sapiens, HeLa, read-out: Percentage Cell Survival), 105 ± 9.5%; with human fibroblasts (Homo sapiens, Fibroblast, read-out: Percentage Cell Survival) it was 96 ± 8.3%; in data set [7] (Homo sapiens, Lymphoblastoid cell, read-out: Percentage Cell Survival), 117 ± 8%; in “in vitro [10]”, 97 ± 11.8%; in “in vitro [11]”, 103 ± 5.7%. Further, the viability at 11.3 µM in the data set “in vitro [12]” amounted to 97 ± 7%; in the data set “in vitro [13]” it was 110 ± 3.8%. In addition, the figures for the “inhibition of tritiated thymidine uptake / cytotoxicity (words)” value in data set [8] and in data set [8] (listed as solasonine) were “ineffective” and “not cytotoxic”, respectively. In addition, the “cytotoxicity (words)” value was “ineffective” in data set [9] and “absence of any effect” in [9] (listed as solasonine).

For `CC[C@]1(O)C[C@@H]2CN(CCc3c([nH]c4ccccc34)[C@@](C(=O)OC)(c3cc4c(cc3OC)N(C)[C@H]3[C@@](O)(C(=O)OC)[C@H](OC(C)=O)[C@]5(CC)C=CCN6CC[C@]43[C@@H]65)C2)C1` [vinblastine, reference compound], the IC50 in the data set on ovarian cancer cells [5] (read-out: LD50 (dose to inhibit 50% tritiated thymidine uptake)) worked out at 9.5 µM; in the data set with HeLa cells [6] (Homo sapiens, HeLa, read-out: LD50 (dose to inhibit 50% tritiated thymidine uptake)) it was 2.7 µM; with human fibroblasts (Homo sapiens, Fibroblast, read-out: LD50 (dose to inhibit 50% tritiated thymidine uptake)), 1.9 µM; in data set [7] (human gammaherpesvirus 4, LCL, read-out: LD50 (dose to inhibit 50% tritiated thymidine uptake)) it was 2.6 µM. In addition, the “TR50 (thymidine ratio relative to ovarian cancer cells)” value with HeLa cells [6] (HeLa / OvCa) turned out to be 0.28; with human fibroblasts (FB / OvCa), 0.2; in [7] (LCL / OvCa), 0.27. Further, the “TR50 for fibroblasts/lymphoblastoid cells” value in the data set on human fibroblasts (fibroblasts/lymphoblastoid cells) was 0.73. Moreover, the “cytotoxicity to normal cells relative to cancer cells” value in [8] (normal versus cancer cells) is “equally or more cytotoxic to normal cells relative to cancer cells”. Further, the CC50 in “in vitro [10]” came to 11 µM; in the data set “in vitro [11]”, 19.2 µM; in “in vitro [12]”, 7.8 µM; in “in vitro [13]” it was 10.8 µM.

Turning to `C[C@H]1CC[C@@H]2[C@@H](C)[C@H]3[C@H](C[C@H]4[C@@H]5CC=C6C[C@@H](O[C@@H]7O[C@H](CO)[C@H](O)[C@H](O[C@@H]8O[C@H](CO)[C@@H](O)[C@H](O)[C@H]8O)[C@H]7O[C@@H]7O[C@@H](C)[C@H](O)[C@@H](O)[C@H]7O)CC[C@]6(C)[C@H]5CC[C@]34C)N2C1` [solanine], the “lysosomotropic/mitochondrial inhibition” value in data set [8] is listed as “lack of lysosomotropic/mitochondrial inhibition”.
